Measured values reported in patent US20260283968A1, “METHOD FOR PRODUCING MILK LIKE PRODUCTS” (SOCIÉTÉ DES PRODUITS NESTLÉ S.A., priority 2023, published 2026).

Legend:
[1] = test system: iPSCs derived mammary gland organoids; assay: Flow cytometry quantification of mammary gland progenitor markers during 3D differentiation of iPSCs; format: cell-based, human; conditions: 20 ng/mL BMP4, 1 μM RA, single or combination, 42 days or 31 days protocol, vs control condition
Description: In order to generate milk bioactives that closely resemble those found in human breast milk, different methods using bone morphogenetic protein 4 (BMP4) and retinoic acid (RA) in 42 days and 31 days as a shortened time-course protocol were established in a 3D-platform using iPSCs derived mammary gland organoids as a biomimetic model of the human mammary gland (FIG. 6).

[2] = test system: iPS-derived mammary-gland cells; assay: LC-MS/MS targeted proteomic analysis of osteopontin secretion in culture media; format: cell-based, human; conditions: BMP4 and RA added to the differentiation culture medium

Molecule	expression of mammary gland progenitor markers EpCAM (CD326), CD49f, MUC1 (CD227), GATA3 [1]	expression and secretion of milk-specific bioactive marker osteopontin (OPN) [2]
CC1=C(/C=C/C(C)=C/C=C/C(C)=C/C(=O)O)C(C)(C)CCC1 [RA, retinoic acid]	can induce the expression of mammary gland progenitor markers	improve expression and secretion levels of milk-specific bioactive markers
BMP4: bone morphogenetic protein 4, differentiation factor added to the culture medium (protein, UniProt P12644 293-408, looked up) Bone morphogenetic protein 4: SPKHHSQRARKKNKNCRRHSLYVDFSDVGWNDWIVAPPGYQAFYCHGDCPFPLADHLNSTNHAIVQTLVNSVNSSIPKACCVPTELSAISMLYLDEYDKVVLKNYQEMVVEGCGCR	can induce the expression of mammary gland progenitor markers	improve expression and secretion levels of milk-specific bioactive markers
